US20230295086A1, “NOVEL PSILOCIN DERIVATIVES HAVING PRODRUG PROPERTIES” (COMPASS […], priority 2020, published 2023)
Marks after values point to notes of the source that are not given here.

How the values were obtained:
[1] = Kinetic solubility assay (Example 11); conditions: 50 mM PB pH 7.4, target 200 μM, 24 hours shaking at room temperature, UPLC; test compound as hydrochloride
Protocol: Test and control compounds were diluted to 10 mM in DMSO and then further diluted 1 in 50 in 50 mM PB (pH 7.4) to a target concentration of 200 μM. Samples were vortexed for at least 2 minutes and then left to shake (800 rpm) at room temperature for 24 hours. Visual appearance was assessed before centrifugation and injection into a UPLC system to measure concentration. […] Each compound was tested in duplicate.

[2] = Shake flask Log D assay (Example 11); assay type: physicochemical; conditions: 1-Octanol / 100 mM PB pH 7.4, shake flask, LC-MS/MS; test compound as hydrochloride
Protocol: Test and control compounds were diluted to 10 mM in DMSO. 2 μl of each stock solution was aliquoted into tubes in duplicate. 1-Octanol saturated phosphate buffer (PB) (pH 7.4) was prepared by adding 1-Octanol into 100 ml of 100 mM PB (7.4). PB saturated 1-Octanol was prepared by adding 10 ml of 100 mM PB (7.4) into 100 ml of 1-Octanol. 149 μl of each solution was aliquoted into the corresponding tubes. These were then mixed vigorously for 2 minutes and shaken (800 rpm) at room temperature for one hour. The appropriate volume of buffer and 1-Octanol layer samples was aliquoted and diluted, before detection using LC-MS/MS.
Log D was calculated according to the following equation: […]

[3] = Pharmacokinetics in the mouse (plasma psilocin); assay type: in vivo, male C57BL/6J mice; conditions: IV, 0.3 mg/kg
Protocol: 27 male C57BL/6J mice weighing 22-25 g at time of purchase (Charles River UK) were group housed (3 s) in polypropylene cages. Mice were maintained on a normal phase 12 hr light-dark cycle (lights on from 07:00-19:00) with ad libitum access to standard pelleted diet (Envigo 2018) and filtered tap water. The holding room was maintained at 21±4° C. with a relative humidity of 55±15%.
Mice were weighed on the day of dosing and identified by a tail mark using a permanent marker pen. Food was not withdrawn on the day of dosing. […] The remaining animals were divided into two cohorts, with animals in the first cohort receiving a single oral dose of one of the test compounds and animals in the second cohort receiving a single intravenous dose (in a lateral tail vein) of one of the test compounds. Following treatment, animals dosed orally were bled by venesection from the lateral tail vein at 5, 15, 30, 45, 60, 120, and 240 minutes post-dosing. Animals dosed intravenously were bled by venesection from the opposite lateral tail vein at the same timepoints. […] All compounds were formulated in saline and dosed in a volume of 5 ml/kg.
25 μl of blood was collected per animal per timepoint. […] Psilocin levels within samples were determined using LC-MS/MS. All pharmacokinetic parameters were calculated manually. […]

[4] = target: T1, serotonin 2A (5-HT2A) receptor (Mus musculus, UniProt P35363); test: Head twitch response (HTR) in mice; assay type: in vivo, male C57BL/6J mice; conditions: oral gavage 0.3 mg/kg
T1 construct: tissue Charles River UK; host or cells: whole living male C57BL/6J mice (in vivo, oral gavage)
T1 sequence (P35363 whole entry): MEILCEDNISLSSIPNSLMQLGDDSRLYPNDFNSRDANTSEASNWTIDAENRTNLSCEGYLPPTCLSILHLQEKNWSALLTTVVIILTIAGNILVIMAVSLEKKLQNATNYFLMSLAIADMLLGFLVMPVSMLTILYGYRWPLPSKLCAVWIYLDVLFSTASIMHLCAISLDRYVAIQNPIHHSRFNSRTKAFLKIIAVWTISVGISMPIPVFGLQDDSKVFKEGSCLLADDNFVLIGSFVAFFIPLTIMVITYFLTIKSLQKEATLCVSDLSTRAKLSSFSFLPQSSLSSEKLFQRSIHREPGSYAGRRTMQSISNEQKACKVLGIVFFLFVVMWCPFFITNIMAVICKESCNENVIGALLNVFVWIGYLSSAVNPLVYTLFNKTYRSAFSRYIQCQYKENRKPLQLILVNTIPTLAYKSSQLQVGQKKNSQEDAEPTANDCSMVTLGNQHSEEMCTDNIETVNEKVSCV

Micro shake flask Log D = conditions: Octanol:PBS 1:9, pH 7.4, 10 μM, six replicates; novel compounds as hemifumarate
Protocol: 6 replicates of each test compound were incubated at 10 μM in a 1:9 ratio of Octanol: PBS at pH 7.4. Following a two hour incubation at room temperature shaking at 600 rpm, the incubation plate was centrifuged for 15 minutes to separate the layers and then two aliquots were removed from the PBS layer. The first was left neat and the second was diluted 10-fold to give dilute samples. Internal standards were added to both the calibration curve and the PBS incubation samples for analysis on LC MS/MS.
All 6 replicates of the neat samples were averaged to give one value for each, with the same calculation performed for the dilute sample values.

[5] = Stability of psilocin carbonates in 1% HCl; assay type: physicochemical; conditions: 37° C., approximately 26 hours, LC-MS
Protocol: 4 mg of each test compound was diluted in 2 ml distilled water to give a solution of 2 mg/ml. 2 ml of test compound solutions were then added to 2 ml of 2% (v/v) HCl in distilled water, yielding a final HCl concentration of […] (pH 0.5). Test solutions were incubated at 37° C. with continuous stirring for approximately 26 hours. Concentrations of parent compound and psilocin were analyzed at various timepoints using LC-MS. Concentrations of both parent prodrug and psilocin liberated were expressed relative to the starting concentration of parent prodrug.

[6] = Intake study: serum concentrations after oral ingestion by two volunteers; conditions: for c(Psilocin): study 2
Protocol: Two volunteers (1 M, 1 F) ingested about 1 mg of each one of P1 and M1 (Study 1) and P2 and M2 (Study 2) in gelatin capsules (exact amounts in Tables 3 and 4). One blood sample was collected prior to ingestion of the substances and served as a zero control. After ingestion samples were collected for about 8 h with increasing time intervals between sample taking (exact protocol in Tables 4 and 5). […] The obtained sera were transferred in plastic tubes and NaF (ca. 30 mg) and ascorbic acid (ca. 5 mg) were added to increase analytes stability.
200 μL serum were spiked with an internal standard solution (10 μL) and ACN (600 μL) was added to precipitate soluble proteins. Before mixing thoroughly ammonium formate (10 M, 200 μL) was added separate the aqueous from the organic phase. After centrifugation (6 min, 4,000×g), 500 μL of the organic phase were transferred into another vial and evaporated to dryness at 40° C. under a gentle stream of nitrogen. Samples were reconstituted in 100 μL mobile phase (A/B, 90/10, v/v) and used for analysis. For quantification a blank sample and a six point calibration (0.5, 1.0, 2.0, 5.0, 10, 20 ng/mL) in calf serum were prepared as described above.
The HPLC-MS system consisted of a Nexera X2 UHPLC system composed of three LC-30AD pumps, a DGU-30A3 degasser, a SIL-30AC autosampler, a CTO-10AS column oven and a CBM-20A controller (Shimadzu, Duisburg, Germany) coupled to a QTRAP 6500plus triple quadrupole linear ion trap mass spectrometer equipped with a TurbolonSpray Interface (Sciex, Darmstadt, Germany). The MS was operated in positive electrospray ionization mode. Data acquisition was performed in scheduled multiple reaction monitoring mode (detection window: 60 s) using Analyst software (version 1.7). MS parameters (declustering potential, entrance potential, collision energy, and collision cell exit potential) were optimized for all substances to obtain the best possible signal intensities (summary of the MRM parameters are given in Table 5). Ion source temperature and ion source voltage were set to 550° C. and +5500 V, respectively. Dwell time was 20 ms for every MRM transition. Curtain gas (N2) pressure was 35 psi, ion source gas 1 and 2 (compressed air) pressure were 50 and 60 psi, respectively, and collision gas (N2) pressure was set to “high.” Chromatographic separation was performed on a Kinetex® biphenyl column (100×2.1 mm, 2.6 μm particle size, Phenomenex, Aschaffenburg, Germany) with a corresponding guard column (SecurityGuard™ ULTRA Cartridges UHPLC Biphenyl for 2.1 mm ID columns, Phenomenex, Aschaffenburg, Germany). The autosampler and the column oven temperature were set to 10° C. and 40° C., respectively. The injection volume was 10 μL.

[7] = serum, oral intake of about 1 mg prodrug, mean of 2 volunteers

CN(C)CCc1c[nH]c2cccc(OC(=O)OCc3ccccc3)c12 [Psilocin-4-yl-benzylcarbonate, psilocin-4-yl benzyl carbonate]
Detected concentration [1]: 230 µM
Mean LogD [2]: 2.19
Cmax (psilocin) [3]: approximately double that of psilocybin
Mean number of head twitches 0-15 mins ([4]; N = 8): 2.63
Mean number of head twitches 30-45 mins ([4]; N = 8): 1.88
Mean number of head twitches 45-60 mins ([4]; N = 8): 1.13
Mean number of head twitches Total 0-60 mins ([4]; N = 8): 8.2
Mean number of head twitches 15-30 mins ([4]; N = 8, 0.3 mg/kg): 4.13
Mean number of head twitches 15-30 mins ([4]; N = 8, listed as Psilocin-4-yl-benylcarbonate, 0.3 mg/kg): of similar magnitude to that induced by psilocybin

CN(C)CCc1c[nH]c2cccc(OC(=O)OC(C)(C)C)c12 [Psilocin-4-yl-tert-butylcarbonate, psilocin-4-yl tert-butyl carbonate]
Mean LogD (Micro shake flask Log D): 1.50
Degradation of parent compound / conversion to psilocin [5]: rapid and complete chemical degradation to psilocin within approximately four hours
Parent prodrug itself in serum (not detected, LOD) ([6]; serum after oral ingestion of about 1 mg): < 0.07 ng/mL
Cmax of psilocin [6, 7]: 1.13 ± 0.01 ng/mL
Tmax of psilocin [6, 7]: 1.5 ± 0.933 h
elimination constant kel of psilocin [6, 7]: 0.0043 min⁻¹
elimination half life t1/2 of psilocin [6, 7]: 2.67 h
c(Psilocin) ([6]; serum, test person A, oral P2 0.98 mg salt, 4 min, below LOQ, extrapolated): 0.16* ng/mL
c(Psilocin) ([6]; serum, test person A, oral P2 0.98 mg salt, 12 min, below LOQ, extrapolated): 0.16* ng/mL
c(Psilocin) ([6]; serum, test person A, oral P2 0.98 mg salt, 23 min, below LOQ, extrapolated): 0.21* ng/mL
c(Psilocin) ([6]; serum, test person A, oral P2 0.98 mg salt, 34 min, below LOQ, extrapolated): 0.22* ng/mL
c(Psilocin) ([6]; serum, test person A, oral P2 0.98 mg salt, 50 min): 0.43 ng/mL
c(Psilocin) ([6]; serum, test person A, oral P2 0.98 mg salt, 77 min): 0.57 ng/mL
c(Psilocin) ([6]; serum, test person A, oral P2 0.98 mg salt, 113 min): 0.99 ng/mL
c(Psilocin) ([6]; serum, test person A, oral P2 0.98 mg salt, 130 min): 1.14 ng/mL
c(Psilocin) ([6]; serum, test person A, oral P2 0.98 mg salt, 165 min): 0.96 ng/mL
c(Psilocin) ([6]; serum, test person A, oral P2 0.98 mg salt, 205 min): 0.83 ng/mL
c(Psilocin) ([6]; serum, test person A, oral P2 0.98 mg salt, 270 min): 0.66 ng/mL
c(Psilocin) ([6]; serum, test person A, oral P2 0.98 mg salt, 335 min): 0.47 ng/mL
c(Psilocin) ([6]; serum, test person A, oral P2 0.98 mg salt, 395 min): 0.40 ng/mL
c(Psilocin) ([6]; serum, test person A, oral P2 0.98 mg salt, 458 min, below LOQ, extrapolated): 0.30* ng/mL
c(Psilocin) ([6]; serum, test person B, oral P2 1.05 mg salt, 6 min, below LOQ, extrapolated): 0.24* ng/mL
c(Psilocin) ([6]; serum, test person B, oral P2 1.05 mg salt, 13 min, below LOQ, extrapolated): 0.26* ng/mL
c(Psilocin) ([6]; serum, test person B, oral P2 1.05 mg salt, 22 min): 0.48 ng/mL
c(Psilocin) ([6]; serum, test person B, oral P2 1.05 mg salt, 34 min): 0.75 ng/mL
c(Psilocin) ([6]; serum, test person B, oral P2 1.05 mg salt, 50 min): 1.12 ng/mL
c(Psilocin) ([6]; serum, test person B, oral P2 1.05 mg salt, 77 min): 1.12 ng/mL
c(Psilocin) ([6]; serum, test person B, oral P2 1.05 mg salt, 100 min): 0.92 ng/mL
c(Psilocin) ([6]; serum, test person B, oral P2 1.05 mg salt, 127 min): 0.73 ng/mL
c(Psilocin) ([6]; serum, test person B, oral P2 1.05 mg salt, 165 min): 0.53 ng/mL
c(Psilocin) ([6]; serum, test person B, oral P2 1.05 mg salt, 205 min): 0.51 ng/mL
c(Psilocin) ([6]; serum, test person B, oral P2 1.05 mg salt, 270 min): 0.40 ng/mL
c(Psilocin) ([6]; serum, test person B, oral P2 1.05 mg salt, 331 min): 0.33 ng/mL
c(Psilocin) ([6]; serum, test person B, oral P2 1.05 mg salt, 394 min, below LOQ, extrapolated): 0.30* ng/mL
c(Psilocin) ([6]; serum, test person B, oral P2 1.05 mg salt, 454 min, below LOQ, extrapolated): 0.29* ng/mL
Mean number of head twitches 0-15 mins ([4]; N = 8): 3
Mean number of head twitches 15-30 mins ([4]; N = 8): 2
Mean number of head twitches 30-45 mins ([4]; N = 8): 1.5
Mean number of head twitches 45-60 mins ([4]; N = 8): 0.13
Mean number of head twitches Total 0-60 mins ([4]; N = 8): 6.48
